# Results: US8729088B2, “Toll-like receptor modulators and treatment of diseases” (The Regents of the University of California, priority 2009, dated 2014)
# Experiments:
# TLR7 [1] = target: T1, TLR7 (Homo sapiens, UniProt Q9NYK1); assay: Cytokine induction in human PBMC, LUMINEX bead assay; type: cell-based; settings: 18 hours
# T1 construct: endogenous in cells; host or cells: human PBMC from buffy coats (The San Diego Blood Bank)
# T1 sequence (Q9NYK1 27-1049): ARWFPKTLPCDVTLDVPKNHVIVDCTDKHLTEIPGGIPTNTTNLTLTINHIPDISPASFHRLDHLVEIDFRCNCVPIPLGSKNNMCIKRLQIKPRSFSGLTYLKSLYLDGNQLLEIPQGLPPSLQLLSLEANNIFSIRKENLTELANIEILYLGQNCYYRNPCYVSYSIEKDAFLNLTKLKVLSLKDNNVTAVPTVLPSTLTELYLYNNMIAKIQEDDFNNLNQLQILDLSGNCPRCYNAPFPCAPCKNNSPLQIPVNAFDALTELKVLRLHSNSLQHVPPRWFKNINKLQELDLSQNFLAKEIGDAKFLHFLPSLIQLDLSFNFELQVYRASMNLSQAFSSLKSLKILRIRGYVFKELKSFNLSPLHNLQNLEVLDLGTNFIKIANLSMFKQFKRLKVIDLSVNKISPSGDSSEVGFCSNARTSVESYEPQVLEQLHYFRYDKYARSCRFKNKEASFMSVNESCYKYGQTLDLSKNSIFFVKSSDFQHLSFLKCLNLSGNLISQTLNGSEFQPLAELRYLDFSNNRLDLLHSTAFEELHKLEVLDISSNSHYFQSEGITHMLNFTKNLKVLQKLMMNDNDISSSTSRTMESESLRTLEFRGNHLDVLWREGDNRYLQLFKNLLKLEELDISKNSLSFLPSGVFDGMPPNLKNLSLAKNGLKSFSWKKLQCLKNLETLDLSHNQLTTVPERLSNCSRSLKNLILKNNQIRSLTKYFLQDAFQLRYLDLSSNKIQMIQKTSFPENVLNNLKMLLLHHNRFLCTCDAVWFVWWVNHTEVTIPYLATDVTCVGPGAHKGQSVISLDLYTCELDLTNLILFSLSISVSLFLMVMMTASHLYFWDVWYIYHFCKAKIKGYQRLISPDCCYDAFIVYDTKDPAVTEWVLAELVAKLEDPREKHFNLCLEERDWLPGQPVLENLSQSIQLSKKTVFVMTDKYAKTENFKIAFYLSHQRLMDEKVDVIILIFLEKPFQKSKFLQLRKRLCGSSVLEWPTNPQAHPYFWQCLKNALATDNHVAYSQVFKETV
# Procedure: Human blood peripheral mononuclear cells (PBMC) were isolated from human buffy coats, purchased from The San Diego Blood Bank (San Diego, Calif.), as described in Hayashi, T et al., “Enhancement of innate immunity against Mycobacterium avium infection by immunostimulatory DNA is mediated by indoleamine 2,3-dioxygenase”, Infect Immun 69:6156-64, (2001). PBMC (1×10^6/mL) were incubated with various concentrations of TLR7 conjugates for 18 hours at 37° C., 5% CO2 and culture supernatants were collected. The levels of cytokines (IL-6, TNF-α, or IFNα1) in the supernatants were determined by LUMINEX bead assays (Invitrogen, Carlsbad, Calif.), and the results presented in FIG. 3A-B. Data are mean±SEM of triplicates and are representative of three independent experiments. The minimum detection levels of IL-6, TNF-α, and IFNα1 were 6 pg/mL, 10 pg/mL and 15 pg/mL, respectively.
# To further investigate the immunological activities in human cells, human PBMC from three donors were treated with TLR7 conjugates and the levels of IL-6 and IFNa1 were determined by LUMINEX assay (FIG. 3A-B).
# TLR7 [2] = target: T2, TLR7 (Mus musculus, UniProt P58681); assay: Cytokine induction in BMDM from wild type and TLR7 deficient mice; type: cell-based; design: endogenous in cells; host or cells: primary BMDM from C57BL/6 mice; settings: wild type BMDM
# T2 sequence (P58681 27-1050): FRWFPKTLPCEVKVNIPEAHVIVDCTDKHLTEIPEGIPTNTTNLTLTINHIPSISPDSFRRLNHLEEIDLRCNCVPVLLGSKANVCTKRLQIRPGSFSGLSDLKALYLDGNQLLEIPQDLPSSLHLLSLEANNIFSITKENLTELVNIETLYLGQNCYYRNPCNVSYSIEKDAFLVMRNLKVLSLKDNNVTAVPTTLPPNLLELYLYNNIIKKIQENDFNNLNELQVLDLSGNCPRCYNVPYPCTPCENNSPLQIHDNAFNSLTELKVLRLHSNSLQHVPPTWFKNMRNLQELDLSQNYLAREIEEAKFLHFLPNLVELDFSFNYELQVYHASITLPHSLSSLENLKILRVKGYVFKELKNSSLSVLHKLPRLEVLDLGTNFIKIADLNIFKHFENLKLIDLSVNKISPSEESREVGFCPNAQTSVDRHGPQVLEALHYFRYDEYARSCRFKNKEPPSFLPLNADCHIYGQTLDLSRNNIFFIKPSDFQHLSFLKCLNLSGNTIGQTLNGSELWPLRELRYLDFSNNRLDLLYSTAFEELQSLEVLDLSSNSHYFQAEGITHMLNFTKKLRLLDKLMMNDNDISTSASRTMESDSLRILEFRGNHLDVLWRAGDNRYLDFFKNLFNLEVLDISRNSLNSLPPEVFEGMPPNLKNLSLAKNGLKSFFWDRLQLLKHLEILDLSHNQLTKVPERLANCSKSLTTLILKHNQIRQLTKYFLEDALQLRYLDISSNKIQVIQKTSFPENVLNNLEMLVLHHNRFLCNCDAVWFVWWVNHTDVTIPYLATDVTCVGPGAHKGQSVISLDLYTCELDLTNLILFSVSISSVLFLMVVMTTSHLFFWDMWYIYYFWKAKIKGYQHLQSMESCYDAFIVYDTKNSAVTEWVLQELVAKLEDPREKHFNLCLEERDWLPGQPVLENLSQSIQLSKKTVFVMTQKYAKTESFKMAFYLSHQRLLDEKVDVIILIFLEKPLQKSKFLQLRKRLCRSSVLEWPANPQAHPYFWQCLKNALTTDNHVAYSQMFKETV
# Procedure: In vitro measurements of cytokine induction were performed using the mouse leukemic monocyte macrophage cell line, RAW264.7. […] BMDM were prepared from C57BL/6 and TLR7 deficient mice as described in Wu, C. C et al., (2007) “Immunotherapeutic activity of a conjugate of a Toll-like receptor 7 ligand”, Proc Natl Acad Sci USA 104, 3990-5.
# In general, RAW264.7 cells or BMDM were incubated with various concentrations of conjugates for 18 hours at 37° C., 5% CO2 and culture supernatants were collected. The levels of cytokines (IL-6, IL-12 or TNF-α in the supernatants were determined by ELISA (BD Biosciences Pharmingen, La Jolla, Calif.) (Cho, H. J et al., “Immunostimulatory DNA-based vaccines induce cytotoxic lymphocyte activity by a T-helper cell-independent mechanism” [see comments], Nat Biotechnol 18, 509-14 (2000)), and the results presented in FIG. 2A-D. Data are mean±SEM of triplicates and are representative of three independent experiments. Minimum detection levels of these cytokines were 15 pg/mL.
SMILES,order of TLR7 conjugate potency (TLR7 [1]),"agonist activity (IL-12, IL-6) (TLR7 [2])"
"CCCCCCCC/C=C\CCCCCCCC(=O)OCC(COP(=O)(O)OCCNC(=O)c1ccc(Cn2c(=O)[nH]c3c(N)nc(OCCOC)nc32)cc1)OC(=O)CCCCCCC/C=C\CCCCCCCC (stereo not drawn) [Compound 6, 2-(4-((6-amino-2-(2-methoxyethoxy)-8-oxo-7H-purin-9(8H)-yl)methyl)benzamido)ethyl 2,3-bis(oleoyloxy)propyl phosphate]",(4b)>(6)>(9)>/=SM>(8),active
"COCCOc1nc(N)c2nc(O)n(Cc3ccc(C(=O)NCCOCCOCCOCCOCCOCCOCCOCCOCCOCCOCCn4cc(CCC(=O)O)nn4)cc3)c2n1 [Compound 8, 3-(1-(1-(4-((6-amino-8-hydroxy-2-(2-methoxyethoxy)-9H-purin-9-yl)methyl)phenyl)-1-oxo-5,8,11,14,17,20,23,26,29,32-decaoxa-2-azatetratriacontan-34-yl)-1H-1,2,3-triazol-4-yl)propanoic acid]",(4b)>(6)>(9)>/=SM>(8),active
"CCCCCCCC/C=C\CCCCCCCC(=O)OCC(COP(=O)(O)OCCNC(=O)CCc1cn(CCOCCOCCOCCOCCOCCOCCOCCOCCOCCOCCNC(=O)c2ccc(Cn3c(O)nc4c(N)nc(OCCOC)nc43)cc2)nn1)OC(=O)CCCCCCC/C=C\CCCCCCCC (stereo not drawn) [Compound 9, 2-(3-(1-(1-(4-((6-amino-8-hydroxy-2-(2-methoxyethoxy)-9H-purin-9-yl)methyl)phenyl)-1-oxo-5,8,11,14,17,20,23,26,29,32-decaoxa-2-azatetratriacontan-34-yl)-1H-1,2,3-triazole-4-yl)propanamido)ethyl 2,3-bis(oleoyloxy)propyl phosphate]",(4b)>(6)>(9)>/=SM>(8),active
